Here are results for 4 compounds from patent EP0123446A1, “2-Furylbutyrolactone derivatives, their preparation, compositions containing them, and their use for the modulation of the immune system in mammals” (NATIONAL FOUNDATION FOR CANCER RESEARCH, INC., priority 1983, dated 1984).

Each structure is given as a SMILES string.

In one assay the test system is L-1210 leukaemia cells. As to the kind of experiment: L-1210 leukaemia anti-cancer study (NCI protocol), BDF1 mice. Format: in vivo. To be noted: 20 mg/kg, seven days, Table 25. The text has this:
Mice of the BDF1 strain were given an i.p. inoculation of 10^6 L-1210 leukaemia cells on day 0. Twenty-four hours later, groups of 7 mice each were started on a […] treatment regimen of various doses of the compounds of this invention. The experiment was continued according to the guidelines provided under the National Cancer Institute protocol for screening new anti-cancer agents; T/C ratios (median or mean survival time of treated groups over median or mean survival time of controls) were calculated. A T/C value > 1.25 (or 125%) is considered to indicate significant anticancer activity.
Mice of the BDF1 strain, inoculated with L-1210 leukaemia cells, were treated for seven days with either 25, 50, 100, 200 or 400 mg/kg of Cpd. 1 or just buffer. The National Cancer Institute protocol for screening new anti-cancer agents was followed and T/C ratios were calculated.
Mice of the BDFI strain, inoculated with L-1210 leukaemia cells, were treated for seven days with either 100 mg/kg of Cpd. 1, 20 mg/kg of 5-fluorouracil (5-FU), a known anti-cancer agent, or just buffer. The National Cancer Institute protocol for screening new anti-cancer agents was followed and T/C ratios are calculated.

For assay [1], the system named is spleen lymphocytes. As to the kind of experiment: Lymphocyte stimulation assay after in vivo treatment, C57BL/6 mice. To be noted: for Lymphocyte Stimulation Index Con-A / Lymphocyte Stimulation Index Control / Lymphocyte Stimulation Index PHA: C57BL/6, Table 3-A. As for the experimental part:
(§1) The purpose of this assay is to challange lymphocytes in microcultures with one or more polyclonal mitogens at concentrations that will induce mitogenesis within 72 hours of stimulation.
(§2) In the mouse model, spleens were removed from different strains of mice and the spleen cells were teased free and suspended in RPMI-1640 tissue culture medium at a concentration of usually 1 x 10^7 ml. These cells were dispensed at a concentration of […] cells per microculture well in a 96 well flat bottom tissue culture plate. All testing of the compounds of this invention or mitogens were done in replicates of 10. The cells were then treated with PHA. Con-A, specific antigens, or buffer only. Where in vitro testing was done, varying concentrations of the compounds of this invention or buffer only were added to the cells as well. After treatment with the mitogens and/or compounds of this invention, the cells were incubated for 72 hours. The response of these cells to mitogens and/or the compounds of this invention was assessed using 14 C-thymidine labeling on the fourth day at a concentration of 0.01 microCi/well. The labeled cells were harvested using a lymphocyte harvestor and placed onto fibrous paper discs. A scintillation cocktail was added to vials containing the discs and the results were obtained using a LKB-liquid scintillation counter (Model 1216/Rackbeta II). The data is expressed as a ratio of the cpm (counts per minute) of the mitogen stimulated group to the control (non-mitogen) treated group = lymphocyte stimulation index (LSI).
(§3) The lymphocyte stimulation assay may be performed directly on spleen cells obtained from various strains of mice not treated with the compounds of this invention or on lymphocytes obtained from human plasma. In such experiments, the compounds of this invention were added directly to the spleen lymphcytes in vitro and the assay was completed and results interpreted. Alternatively. the mice may be treated in vivo with the compounds of this invention by intraperitoneal multi-dose schedules, followed by sacrifice and harvesting spleen lymphocytes. These cells were then tested for their response to polyclonal mitogens or specific antigens used to immunize the mice. In this system however, no additional compound was added to the in vitro lymphocyte stimulation assay system.

The subject of the next assay is human lymphocytes. Briefly: In vitro lymphocyte stimulation assay, human lymphocytes. Format: cell-based. Set-up: key to Lymphocyte Stimulation Index PHA / Lymphocyte Stimulation Index Con-A: ratio of cpm of mitogen-stimulated to non-mitogen control group (LSI). To be noted: for Lymphocyte Stimulation Index Con-A / Lymphocyte Stimulation Index PHA: human, Table 6-A. On the procedure:
as §1, §2, §3
Lymphocytes isolated from 5 human volunteers were treated in vitro with PHA and Con-A and either 10^2, 10^3, 10^4, 5 x 10^4 or 10^5 ng/well of Cpd. 1, 10^2, 10^3, 10^4, 5 x 10^4, or 10^5 ng/well of AA, or buffer.

The subject of assay [2] is spleen lymphocytes. Briefly: In vitro lymphocyte stimulation assay, C57BL/6 spleen lymphocytes. Particulars: for effect on response of the lymphocytes to PHA and Con-A: C57BL/6 spleen cells in vitro, Example 19. Format: cell-based, mice. As for the experimental part: as §1, §2, §3
[3] abbreviates: 1.04x10^3 ng/well in vitro, C57BL/6, Table 12-A.
Where [4] appears, read: 1.66x10^4 ng/well in vitro, C57BL/6, Table 12-A.
[5] abbreviates: 2.08x10^3 ng/well in vitro, C57BL/6, Table 12-A.
Setting [6] is: 4.15x10^3 ng/well in vitro, C57BL/6, Table 12-A.
Setting [7] is: 8.3x10^3 ng/well in vitro, C57BL/6, Table 12-A.
Setting [8] is: 1.392x10^4 ng/well, C57BL/6, Table 12-B.
Where [9] appears, read: 1.74x10^3 ng/well, C57BL/6, Table 12-B.
Setting [10] is: 3.48x10^3 ng/well, C57BL/6, Table 12-B.
Setting [11] is: 6.96x10^3 ng/well, C57BL/6, Table 12-B.
The mark [12] stands for this setting: 8.7x10^2 ng/well, C57BL/6, Table 12-B.

`O=c1[nH]cc(F)c(=O)[nH]1` [5-FU, 5-fluorouracil]: in the assay with L-1210 leukaemia cells, the “Median Survival Time” value is 30 and the T/C was determined as 1.50.

For the compound `O=C1O[C@H]([C@@H](O)CO)C(O)=C1O` [AA, ascorbic acid], in the assay on spleen lymphocytes [1] (50 mg/kg i.p. 4 days, C57BL/6), the “effect on lymphocyte response, Con-A stimulated group” value is given as “single stimulation of proliferation”. Further, the “Lymphocyte Stimulation Index Con-A” value in the assay with spleen lymphocytes [1] (50 mg/kg i.p. 4 days) amounted to 25.5; in the assay with spleen lymphocytes [1] (100 mg/kg i.p. 4 days), 19.8; in the assay on spleen lymphocytes [1] (200 mg/kg i.p. 4 days), 21.1; in the assay with spleen lymphocytes [1] (400 mg/kg i.p. 4 days), 17.8; with spleen lymphocytes [1] (800 mg/kg i.p. 4 days) it was 23.9; in the assay on human lymphocytes (5x10^4 ng/well in vitro), 23.31. Besides, the “Lymphocyte Stimulation Index Con-A” value with human lymphocytes (10^2 ng/well in vitro) was 24.37; in the assay on human lymphocytes (10^3 ng/well in vitro), 24.76; in the assay on human lymphocytes (10^4 ng/well in vitro), 27.35; in the assay with human lymphocytes (10^5 ng/well in vitro) it was 25.18. Also, the “Lymphocyte Stimulation Index Control” value in the assay on spleen lymphocytes [1] (50 mg/kg i.p. 4 days) is reported as 0.56; in the assay with spleen lymphocytes [1] (100 mg/kg i.p. 4 days) it was 1.8; in the assay with spleen lymphocytes [1] (200 mg/kg i.p. 4 days), 1.3; in the assay with spleen lymphocytes [1] (400 mg/kg i.p. 4 days) it was 1.3; in the assay with spleen lymphocytes [1] (800 mg/kg i.p. 4 days), 0.50. Further, the “Lymphocyte Stimulation Index PHA” value in the assay on spleen lymphocytes [1] (50 mg/kg i.p. 4 days) is on record as 17.1; with spleen lymphocytes [1] (100 mg/kg i.p. 4 days), 17.1; with spleen lymphocytes [1] (200 mg/kg i.p. 4 days), 10.0; in the assay with spleen lymphocytes [1] (400 mg/kg i.p. 4 days), 14.3; in the assay with spleen lymphocytes [1] (800 mg/kg i.p. 4 days), 12.1; in the assay with human lymphocytes (5x10^4 ng/well in vitro) it was 35.93. The “Lymphocyte Stimulation Index PHA” value with human lymphocytes (10^2 ng/well in vitro) amounted to 38.29; with human lymphocytes (10^3 ng/well in vitro), 34.69; in the assay on human lymphocytes (10^4 ng/well in vitro), 35.10; with human lymphocytes (10^5 ng/well in vitro) it was 34.23. In addition, in the assay on spleen lymphocytes [1] (50-800 mg/kg i.p. 4 days, C57BL/6), the “effect on lymphocyte response with PHA” value is on record as “No statistically significant measureable effect”. For the same compound, the “proliferative or anti-proliferative effect, PHA and Con-A” value with human lymphocytes (10^2 to 10^5 ng/well, human lymphocytes in vitro) is “no significant proliferative or anti-proliferative effect”.

Consider `O=C(O)CCC(=O)O` [Succinic Acid, succinic acid], for which the “Lymphocyte Stimulation Index Con-A” value in the assay with spleen lymphocytes [2] (setting [3]) is listed as 64.6; with spleen lymphocytes [2] (setting [4]), 38.5; with spleen lymphocytes [2] (setting [5]), 51.1; in the assay on spleen lymphocytes [2] (setting [6]) it was 42.3; with spleen lymphocytes [2] (setting [7]), 35.6. Moreover, the “Lymphocyte Stimulation Index Control” value came out at 0.94 in the assay on spleen lymphocytes [2] (setting [3]); 1.1 in the assay with spleen lymphocytes [2] (setting [4]); 1.0 in the assay on spleen lymphocytes [2] (setting [5]); 0.91 in the assay on spleen lymphocytes [2] (setting [6]); 0.91 in the assay with spleen lymphocytes [2] (setting [7]). The “Lymphocyte Stimulation Index PHA” value in the assay on spleen lymphocytes [2] (setting [3]) was 15.7; with spleen lymphocytes [2] (setting [4]), 11.5; in the assay with spleen lymphocytes [2] (setting [5]), 15.3; in the assay on spleen lymphocytes [2] (setting [6]), 14.0; with spleen lymphocytes [2] (setting [7]), 12.4. Besides, the “effect on response of the lymphocytes to PHA and Con-A” value with spleen lymphocytes [2] was “decrease in PHA and Con-A mitogenesis with increased succinic acid dosage”.

Take `O=C1CCC(=O)N1` [Succinimide, succinimide]: the “Lymphocyte Stimulation Index Con-A” value in the assay on spleen lymphocytes [2] (setting [8]) turned out to be 92.9; in the assay on spleen lymphocytes [2] (setting [9]), 83.4; in the assay with spleen lymphocytes [2] (setting [10]), 85.1; in the assay with spleen lymphocytes [2] (setting [11]), 71.9; in the assay on spleen lymphocytes [2] (setting [12]) it was 76.0. For the same compound, the “Lymphocyte Stimulation Index Control” value in the assay on spleen lymphocytes [2] (setting [8]) was found to be 1.4; in the assay on spleen lymphocytes [2] (setting [9]), 1.1; with spleen lymphocytes [2] (setting [10]), 0.98; in the assay on spleen lymphocytes [2] (setting [11]), 1.1; with spleen lymphocytes [2] (setting [12]), 0.91. Also, the “Lymphocyte Stimulation Index PHA” value with spleen lymphocytes [2] (setting [8]) was 17.1; in the assay with spleen lymphocytes [2] (setting [9]) it was 17.5; with spleen lymphocytes [2] (setting [10]), 18.1; in the assay with spleen lymphocytes [2] (setting [11]), 17.2; in the assay on spleen lymphocytes [2] (setting [12]) it was 19.5. Also, the “effect on response of the lymphocytes to PHA and Con-A” value in the assay with spleen lymphocytes [2] is “no significant suppressive or enhancing effect”.
